Columns and labels:
small capillaries = assay: inventor's experiments on the effect of DMSO on blood vessels; conditions: DMSO in a concentration ranging between 50% and 100%; best results at substantially 100%
From the text: The higher the DMSO concentration was taken, the better result was achieved. Such phenomenon may effectively contribute to stopping leakage of capillaries and formation of blister, whereas the leakage and blister are the major factors leading to infections and delayed wound healing, and therefore to scar formation. […] The best results have been observed for usage of DMSO in the concentration of substantially 100%.
(d) DMSO (dimethyl sulfoxide) is known as an industrial solvent that has the ability to penetrate plant and animal tissues and to preserve living cells during freezing. It has bacteriostatic, anti-inflammatory, analgesic, radioprotective, fibrinolytic and vasodilative properties, and inhibits cholinesterase and granulation tissue. DMSO also has been used as an agent to increase the penetrability of other substances. […] This capability of DMSO has increased with an increase of the DMSO concentration, and the best results have been observed for usage of DMSO (USP grade) in the concentration essentially of 100%.

Human Leukocyte Elastase = target: T1, Human Leukocyte Elastase (Homo sapiens, UniProt P08246); conditions: Q. Ying et al., 1991; cited from earlier work
T1 sequence (P08246 30-267): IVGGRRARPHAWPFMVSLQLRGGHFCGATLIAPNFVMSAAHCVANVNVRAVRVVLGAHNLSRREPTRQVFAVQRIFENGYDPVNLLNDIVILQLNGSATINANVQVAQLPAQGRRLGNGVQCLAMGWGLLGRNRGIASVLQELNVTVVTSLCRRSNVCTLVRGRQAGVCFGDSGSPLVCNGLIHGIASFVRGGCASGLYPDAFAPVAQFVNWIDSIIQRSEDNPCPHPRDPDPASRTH

Row | Compound | effect on small capillaries (small capillaries) | elastase inhibition (Human Leukocyte Elastase)
1 | C[S+](C)[O-] [DMSO, dimethyl sulfoxide] | constricts small capillaries | 
2 | C[C@H]1[C@H](C)CC[C@]2(C(=O)O)CC[C@]3(C)C(=CC[C@@H]4[C@@]5(C)CC[C@H](O)C(C)(C)[C@@H]5CC[C@]43C)[C@H]12 [Ursolic acid] |  | potent elastase inhibitor

Source: patent publication US20110135763A1, “Antiseptic formulation especially for prevention of complications associated with skin burns” (priority 2009, published 2011)
